# Experimental data reported in BigSolDB 2.1.
SMILES,"solubility (mole fraction) (in n-hexane, 293.15 K)","solubility (mole fraction) (in n-hexane, 298.15 K)","solubility (mole fraction) (in n-hexane, 303.15 K)","solubility (mole fraction) (in n-hexane, 308.15 K)","solubility (mole fraction) (in n-hexane, 313.15 K)","solubility (mole fraction) (in n-octanol, 293.15 K)","solubility (mole fraction) (in n-octanol, 298.15 K)","solubility (mole fraction) (in n-octanol, 303.15 K)","solubility (mole fraction) (in n-octanol, 308.15 K)","solubility (mole fraction) (in n-octanol, 313.15 K)"
NC(=S)c1ccncc1,2.97e-06,3.73e-06,4.47e-06,5.47e-06,6.67e-06,0.00347,0.00431,0.00516,0.0062,0.00744
NC(=S)c1ccccn1,0.000199,0.000248,0.000325,0.000404,0.000518,0.00952,0.012,0.0147,0.0183,0.0222
CCc1cc(C(N)=S)ccn1,1.84e-05,2.22e-05,2.73e-05,3.2e-05,3.88e-05,0.00674,0.00868,0.0108,0.0133,0.016
